Experimental data taken from ChEMBL document CHEMBL4304811, “Development of a Water-Soluble Indolylmaleimide Derivative IM-93 Showing Dual Inhibition of Ferroptosis and NETosis” (ACS Med Chem Lett, 2019).

Tests used:
[1] = test system: Tyrosine-protein kinase ABL1 (Homo sapiens), P00519 [F317L]; assay: Binding affinity to human non-phosphorylated ABL1 F317L mutant (S229 to K512 residues) expressed in mammalian expression system assessed as residual binding level at 10 uM by Kinomescan method relative to control
[2] = target: BMP-2-inducible protein kinase (Homo sapiens) (UniProt Q9NSY1); assay: Binding affinity to wild-type human partial length BIKE (S34 to N329 residues) expressed in bacterial expression system assessed as residual binding level at 10 uM by Kinomescan method relative to control
[3] = target: Dual specificity tyrosine-phosphorylation-regulated kinase 1B (Homo sapiens) (UniProt Q9Y463); assay: Binding affinity to wild-type human full length DYRK1B (M1 to S629 residues) expressed in bacterial expression system assessed as residual binding level at 10 uM by Kinomescan method relative to control
[4] = test system: Epidermal growth factor receptor (Homo sapiens), P00533 [UNDEFINED MUTATION]; assay: Binding affinity to human partial length EGFR L747-S752del/P753S mutant expressed in bacterial expression system assessed as residual binding level at 10 uM by Kinomescan method relative to control
[5] = target: Focal adhesion kinase 1 (Homo sapiens) (UniProt Q05397); assay: Binding affinity to wild-type human partial length FAK (D402 to R696 residues) expressed in bacterial expression system assessed as residual binding level at 10 uM by Kinomescan method relative to control
[6] = target: Vascular endothelial growth factor receptor 3 (Homo sapiens) (UniProt P35916); assay: Binding affinity to wild-type human partial length FLT4 (E821 to E1196 residues) expressed in bacterial expression system assessed as residual binding level at 10 uM by Kinomescan method relative to control
[7] = test system: eIF-2-alpha kinase GCN2 (Homo sapiens), Q9P2K8 [S808G]; assay: Binding affinity to wild-type human partial length GCN2 kinase domain 2 (R585 to T1018 residues) S808G mutant expressed in bacterial expression system assessed as residual binding level at 10 uM by Kinomescan method relative to control
[8] = target: Glycogen synthase kinase-3 alpha (Homo sapiens) (UniProt P49840); assay: Binding affinity to wild-type human full length GSK3A (M1 to S483 residues) expressed in bacterial expression system assessed as residual binding level at 10 uM by Kinomescan method relative to control
[9] = target: Serine/threonine-protein kinase haspin (Homo sapiens) (UniProt Q8TF76); assay: Binding affinity to wild-type human partial length HASPIN (I452 to K798 residues) expressed in mammalian expression system assessed as residual binding level at 10 uM by Kinomescan method relative to control
[10] = target: Interleukin-1 receptor-associated kinase 3 (Homo sapiens) (UniProt Q9Y616); assay: Binding affinity to wild-type human partial length IRAK3 (V147 to E596 residues) expressed in bacterial expression system assessed as residual binding level at 10 uM by Kinomescan method relative to control
[11] = target: Mitogen-activated protein kinase kinase kinase kinase 5 (Homo sapiens) (UniProt Q9Y4K4); assay: Binding affinity to wild-type human partial length MAP4K5 (M1 to P297 residues) expressed in bacterial expression system assessed as residual binding level at 10 uM by Kinomescan method relative to control
[12] = target: Serine/threonine-protein kinase Nek1 (Homo sapiens) (UniProt Q96PY6); assay: Binding affinity to wild-type human partial length NEK1 (M1 to K278 residues) expressed in bacterial expression system assessed as residual binding level at 10 uM by Kinomescan method relative to control
[13] = target: Serine/threonine-protein kinase OSR1 (Homo sapiens) (UniProt O95747); assay: Binding affinity to wild-type human full length OSR1 (M1 to S527 residues) expressed in mammalian expression system assessed as residual binding level at 10 uM by Kinomescan method relative to control
[14] = target: Mitogen-activated protein kinase 13 (Homo sapiens) (UniProt O15264); assay: Binding affinity to wild-type human full length p38-delta (M1 to L365 residues) expressed in bacterial expression system assessed as residual binding level at 10 uM by Kinomescan method relative to control
[15] = target: Cyclin-dependent kinase 17 (Homo sapiens) (UniProt Q00537); assay: Binding affinity to wild-type human full length PCTK2 (M1 to F523 residues) expressed in bacterial expression system assessed as residual binding level at 10 uM by Kinomescan method relative to control
[16] = target: Phosphorylase b kinase gamma catalytic chain, liver/testis isoform (Homo sapiens) (UniProt P15735); assay: Binding affinity to wild-type human partial length PHKG2 (M1 to W300 residues) expressed in bacterial expression system assessed as residual binding level at 10 uM by Kinomescan method relative to control
[17] = test system: Phosphatidylinositol 4,5-bisphosphate 3-kinase catalytic subunit alpha isoform (Homo sapiens), P42336 [Q546K]; assay: Binding affinity to human partial length PIK3CA Q546K mutant (R108 to N1068 residues) expressed in mammalian expression system assessed as residual binding level at 10 uM by Kinomescan method relative to control
[18] = target: Phosphatidylinositol 4-kinase beta (Homo sapiens) (UniProt Q9UBF8); assay: Binding affinity to wild-type human full length PIK4CB (M1 to M828 residues) expressed in mammalian expression system assessed as residual binding level at 10 uM by Kinomescan method relative to control
[19] = target: Serine/threonine-protein kinase D1 (Homo sapiens) (UniProt Q15139); assay: Binding affinity to wild-type human partial length PRKD1 (G551 to E870 residues) expressed in bacterial expression system assessed as residual binding level at 10 uM by Kinomescan method relative to control
[20] = test system: Proto-oncogene tyrosine-protein kinase receptor Ret (Homo sapiens), P07949 [V804M]; assay: Binding affinity to human partial length RET V804M mutant (E713 to D1014 residues) expressed in bacterial expression system assessed as residual binding level at 10 uM by Kinomescan method relative to control
[21] = target: Ribosomal protein S6 kinase alpha-5 (Homo sapiens) (UniProt O75582); assay: Binding affinity to wild-type human partial length N- terminal RPS6KA5 kinase domain 1 expressed in bacterial expression system assessed as residual binding level at 10 uM by Kinomescan method relative to control
[22] = target: Ribosomal protein S6 kinase alpha-5 (Homo sapiens) (UniProt O75582); assay: Binding affinity to wild-type human partial length C-terminal RPS6KA5 kinase domain 2 (V390 to T718 residues) expressed in bacterial expression system assessed as residual binding level at 10 uM by Kinomescan method relative to control
[23] = target: Serine/threonine-protein kinase Sgk1 (Homo sapiens) (UniProt O00141); assay: Binding affinity to wild-type human partial length SGK (I60 to L431 residues) expressed in mammalian expression system assessed as residual binding level at 10 uM by Kinomescan method relative to control
[24] = target: Tyrosine-protein kinase Srms (Homo sapiens) (UniProt Q9H3Y6); assay: Binding affinity to wild-type human partial length SRMS (L208 to P488 residues) expressed in mammalian expression system assessed as residual binding level at 10 uM by Kinomescan method relative to control
NIH3T3 = assay: Inhibition of TBHP-induced ferroptosis in mouse NIH/3T3 cells after 12 hrs by WST-8 assay; format: functional, cell-based; conditions: NIH3T3, 12 h

Chain of Ribosomal protein S6 kinase alpha-5 (Homo sapiens) (O75582 whole entry, looked up, the tested form may be a part): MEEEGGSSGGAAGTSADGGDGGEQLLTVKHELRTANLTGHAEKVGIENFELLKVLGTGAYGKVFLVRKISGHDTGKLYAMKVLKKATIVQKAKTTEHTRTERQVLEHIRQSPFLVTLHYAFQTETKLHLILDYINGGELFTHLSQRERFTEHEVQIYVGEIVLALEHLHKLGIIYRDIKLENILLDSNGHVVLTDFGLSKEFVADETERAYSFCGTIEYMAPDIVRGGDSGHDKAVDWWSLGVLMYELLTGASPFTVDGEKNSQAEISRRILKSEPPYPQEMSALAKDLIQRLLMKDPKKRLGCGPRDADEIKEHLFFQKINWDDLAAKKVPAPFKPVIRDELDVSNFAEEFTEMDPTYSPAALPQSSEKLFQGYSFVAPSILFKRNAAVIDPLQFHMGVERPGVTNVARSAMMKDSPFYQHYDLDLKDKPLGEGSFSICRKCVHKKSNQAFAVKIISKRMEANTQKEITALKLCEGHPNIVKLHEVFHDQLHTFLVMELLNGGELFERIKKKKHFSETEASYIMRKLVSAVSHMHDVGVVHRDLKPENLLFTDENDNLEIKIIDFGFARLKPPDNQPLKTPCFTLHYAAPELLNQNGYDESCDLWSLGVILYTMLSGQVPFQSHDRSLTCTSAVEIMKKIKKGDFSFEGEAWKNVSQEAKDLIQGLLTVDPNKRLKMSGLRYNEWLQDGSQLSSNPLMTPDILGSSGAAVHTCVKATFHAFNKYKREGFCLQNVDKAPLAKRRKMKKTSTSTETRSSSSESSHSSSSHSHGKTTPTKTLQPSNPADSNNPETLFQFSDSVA
Chain of Serine/threonine-protein kinase Nek1 (Homo sapiens) (Q96PY6 whole entry, the tested form may be a part): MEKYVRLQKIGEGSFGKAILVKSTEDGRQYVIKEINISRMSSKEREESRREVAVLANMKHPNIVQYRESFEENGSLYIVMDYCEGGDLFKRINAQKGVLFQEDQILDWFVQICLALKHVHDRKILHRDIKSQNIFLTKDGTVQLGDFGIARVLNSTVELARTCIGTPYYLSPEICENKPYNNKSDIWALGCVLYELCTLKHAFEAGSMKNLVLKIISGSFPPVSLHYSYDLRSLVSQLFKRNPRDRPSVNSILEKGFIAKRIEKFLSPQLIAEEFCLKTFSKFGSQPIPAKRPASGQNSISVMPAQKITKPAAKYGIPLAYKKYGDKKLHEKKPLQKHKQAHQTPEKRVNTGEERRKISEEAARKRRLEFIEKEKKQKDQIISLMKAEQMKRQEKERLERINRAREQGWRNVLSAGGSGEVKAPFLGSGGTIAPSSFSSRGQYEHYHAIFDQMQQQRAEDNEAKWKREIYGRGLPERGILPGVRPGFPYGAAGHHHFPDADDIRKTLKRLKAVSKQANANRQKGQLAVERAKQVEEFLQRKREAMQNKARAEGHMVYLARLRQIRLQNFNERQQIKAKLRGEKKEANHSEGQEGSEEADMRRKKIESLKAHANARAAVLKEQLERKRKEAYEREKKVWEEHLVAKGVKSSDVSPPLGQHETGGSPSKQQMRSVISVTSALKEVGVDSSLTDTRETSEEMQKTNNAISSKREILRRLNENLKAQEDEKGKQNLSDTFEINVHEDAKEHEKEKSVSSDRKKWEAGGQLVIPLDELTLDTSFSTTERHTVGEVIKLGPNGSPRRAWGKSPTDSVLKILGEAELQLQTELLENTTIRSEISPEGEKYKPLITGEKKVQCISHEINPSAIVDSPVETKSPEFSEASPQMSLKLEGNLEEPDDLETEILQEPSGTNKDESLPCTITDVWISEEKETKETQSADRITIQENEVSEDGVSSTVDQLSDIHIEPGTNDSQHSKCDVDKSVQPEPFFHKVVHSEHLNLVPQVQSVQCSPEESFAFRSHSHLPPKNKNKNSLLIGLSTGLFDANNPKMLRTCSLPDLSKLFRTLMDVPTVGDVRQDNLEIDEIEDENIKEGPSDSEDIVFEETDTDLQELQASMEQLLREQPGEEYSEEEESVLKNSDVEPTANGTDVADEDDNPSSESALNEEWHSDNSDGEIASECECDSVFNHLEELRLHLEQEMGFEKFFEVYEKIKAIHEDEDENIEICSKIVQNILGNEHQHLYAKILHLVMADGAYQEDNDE
Chain of Phosphatidylinositol 4-kinase beta (Homo sapiens) (Q9UBF8 2-816 limits assumed): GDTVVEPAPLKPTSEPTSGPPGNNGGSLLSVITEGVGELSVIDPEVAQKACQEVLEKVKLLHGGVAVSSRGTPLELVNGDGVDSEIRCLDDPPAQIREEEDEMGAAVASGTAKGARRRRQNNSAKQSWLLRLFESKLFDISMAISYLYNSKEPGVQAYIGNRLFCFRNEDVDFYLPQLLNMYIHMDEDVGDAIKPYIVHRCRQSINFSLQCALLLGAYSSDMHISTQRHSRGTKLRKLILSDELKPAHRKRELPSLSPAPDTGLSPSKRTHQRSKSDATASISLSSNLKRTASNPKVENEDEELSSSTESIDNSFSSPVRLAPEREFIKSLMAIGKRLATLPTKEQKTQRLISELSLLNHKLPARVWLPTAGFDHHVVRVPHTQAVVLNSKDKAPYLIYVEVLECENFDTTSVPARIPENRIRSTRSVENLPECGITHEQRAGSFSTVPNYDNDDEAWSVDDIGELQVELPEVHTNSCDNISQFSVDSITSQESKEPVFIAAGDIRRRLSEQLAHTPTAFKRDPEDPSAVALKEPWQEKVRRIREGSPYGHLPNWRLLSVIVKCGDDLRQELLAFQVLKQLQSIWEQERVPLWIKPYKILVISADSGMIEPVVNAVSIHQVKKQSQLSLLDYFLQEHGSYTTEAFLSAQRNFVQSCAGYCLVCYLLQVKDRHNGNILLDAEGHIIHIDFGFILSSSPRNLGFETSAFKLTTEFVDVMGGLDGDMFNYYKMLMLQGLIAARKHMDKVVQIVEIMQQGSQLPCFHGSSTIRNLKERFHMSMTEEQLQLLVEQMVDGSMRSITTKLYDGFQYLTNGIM
Chain of Epidermal growth factor receptor (Homo sapiens), P00533 [UNDEFINED MUTATION] (P00533 whole entry, looked up, stated change not applied, the tested form may be a part): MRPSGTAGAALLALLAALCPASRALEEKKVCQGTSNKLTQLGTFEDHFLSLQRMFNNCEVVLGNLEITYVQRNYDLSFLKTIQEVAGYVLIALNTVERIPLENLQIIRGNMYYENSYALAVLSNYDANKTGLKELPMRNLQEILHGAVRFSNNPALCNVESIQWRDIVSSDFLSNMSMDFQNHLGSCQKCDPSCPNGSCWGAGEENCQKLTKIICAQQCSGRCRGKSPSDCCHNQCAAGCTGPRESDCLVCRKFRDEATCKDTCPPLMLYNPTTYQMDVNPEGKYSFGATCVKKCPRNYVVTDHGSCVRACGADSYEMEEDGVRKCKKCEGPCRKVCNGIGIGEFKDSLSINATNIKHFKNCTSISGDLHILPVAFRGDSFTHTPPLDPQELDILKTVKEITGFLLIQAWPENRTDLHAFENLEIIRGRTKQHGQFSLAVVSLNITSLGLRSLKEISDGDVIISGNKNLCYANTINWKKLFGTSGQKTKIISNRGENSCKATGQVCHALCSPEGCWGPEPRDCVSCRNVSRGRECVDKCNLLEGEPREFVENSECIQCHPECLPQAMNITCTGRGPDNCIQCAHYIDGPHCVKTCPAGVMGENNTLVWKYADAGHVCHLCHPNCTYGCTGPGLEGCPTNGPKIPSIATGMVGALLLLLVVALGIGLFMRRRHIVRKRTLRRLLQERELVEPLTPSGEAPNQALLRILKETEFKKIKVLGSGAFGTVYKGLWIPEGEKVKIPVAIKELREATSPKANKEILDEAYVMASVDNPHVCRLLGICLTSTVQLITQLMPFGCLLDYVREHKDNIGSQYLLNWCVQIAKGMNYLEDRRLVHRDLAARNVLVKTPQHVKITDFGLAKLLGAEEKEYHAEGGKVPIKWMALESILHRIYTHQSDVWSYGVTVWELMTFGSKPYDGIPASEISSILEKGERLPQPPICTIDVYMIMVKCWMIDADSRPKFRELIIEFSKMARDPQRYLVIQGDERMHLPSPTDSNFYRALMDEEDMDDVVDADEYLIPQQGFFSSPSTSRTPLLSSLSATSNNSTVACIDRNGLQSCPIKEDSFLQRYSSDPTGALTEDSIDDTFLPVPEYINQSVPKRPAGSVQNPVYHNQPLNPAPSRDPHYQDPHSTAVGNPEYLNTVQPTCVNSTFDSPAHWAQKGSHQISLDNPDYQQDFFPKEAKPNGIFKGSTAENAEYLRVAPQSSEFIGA
Chain of Serine/threonine-protein kinase Sgk1 (Homo sapiens) (O00141 whole entry, the tested form may be a part): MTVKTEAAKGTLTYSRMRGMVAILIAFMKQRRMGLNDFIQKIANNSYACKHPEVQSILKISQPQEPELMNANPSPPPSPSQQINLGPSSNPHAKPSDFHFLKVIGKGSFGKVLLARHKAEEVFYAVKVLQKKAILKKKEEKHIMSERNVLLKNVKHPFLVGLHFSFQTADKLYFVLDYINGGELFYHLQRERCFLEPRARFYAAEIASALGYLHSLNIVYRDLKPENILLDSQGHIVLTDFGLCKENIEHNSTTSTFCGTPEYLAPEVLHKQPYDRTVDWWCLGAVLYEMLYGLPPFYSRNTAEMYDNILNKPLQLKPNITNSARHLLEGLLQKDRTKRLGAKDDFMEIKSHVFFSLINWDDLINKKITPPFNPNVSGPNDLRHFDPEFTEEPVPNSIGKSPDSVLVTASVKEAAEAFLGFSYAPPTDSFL
Chain of Serine/threonine-protein kinase OSR1 (Homo sapiens) (O95747 2-527 limits assumed): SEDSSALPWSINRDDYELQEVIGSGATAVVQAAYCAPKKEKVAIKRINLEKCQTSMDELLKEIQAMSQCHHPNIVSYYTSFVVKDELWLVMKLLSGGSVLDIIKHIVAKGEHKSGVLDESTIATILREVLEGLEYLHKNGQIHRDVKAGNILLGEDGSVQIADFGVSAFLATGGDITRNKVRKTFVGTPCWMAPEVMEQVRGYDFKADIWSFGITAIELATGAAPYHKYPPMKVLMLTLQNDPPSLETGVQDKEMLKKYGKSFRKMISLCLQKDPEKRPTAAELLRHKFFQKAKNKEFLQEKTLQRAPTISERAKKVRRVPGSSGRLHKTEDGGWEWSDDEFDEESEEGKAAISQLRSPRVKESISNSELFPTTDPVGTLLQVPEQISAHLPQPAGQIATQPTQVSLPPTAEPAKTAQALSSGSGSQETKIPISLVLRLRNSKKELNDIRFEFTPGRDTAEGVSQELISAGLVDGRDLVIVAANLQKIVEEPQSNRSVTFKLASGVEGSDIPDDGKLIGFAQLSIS

For `CC(C)N1C(=O)C(NCCCN(C)C)=C(c2cn(C)c3ccccc23)C1=O.Cl`, the Activity [1] was 84%, the Activity [2] was 94% and the Activity [3] was 93%. For the same molecule, the Activity [4] was 88%, the Activity [5] was 100% and the Activity [6] was 99%. The Activity [7] was 100%, the Activity [8] was 83% and the Activity [9] was 100%. It also gave an Activity [10] of 85%, an Activity [11] of 100% and an Activity [12] of 100%. It also gave an Activity [13] of 77%, an Activity [14] of 100% and an Activity [15] of 99%. It also gave an Activity [16] of 100%, an Activity [17] of 100% and an Activity [18] of 85%. The Activity [19] was 96%, the Activity [20] was 97% and the Activity [21] was 97%. The Activity [22] was 96%, the Activity [23] was 95% and the Activity [24] was 82%. The IC50 (NIH3T3) was 1800 nM.
